Data as given in US20070243629A1, “High Affinity Ligands for Influenza Virus and Methods for Their Production” (Glykos Finland Oy, priority 2003, published 2007).

How the values were obtained:
Format in all cases: binding, human influenza virus A
Design in all cases: key: “+” = binding; “−” = no binding; “(+)” = trace binding
A/Taiwan/1/86 H1N1 = test system: A/Taiwan/1/86 H1N1
A/Beijing/262/95 H1N1 = test system: A/Beijing/262/95 H1N1
A/Kiev/301/94 H3N2 = test system: A/Kiev/301/94 H3N2
A/Hong Kong/8/68 H3N2 = test system: A/Hong Kong/8/68 H3N2
A/2/Japan/305/57 H2N2 = test system: A/2/Japan/305/57 H2N2
A/New Caledonia/20/99 = test system: A/New Caledonia/20/99
A/Shangdong/9/93 H3N2 = test system: A/Shangdong/9/93 H3N2
A/PR/8/34 H1N1 = test system: A/PR/8/34 H1N1
A/X31, A/Aichi/3/75 H3N2 = test system: A/X31, A/Aichi/3/75 H3N2

Measured: Binding of different human influenza virus A strains to glycolipids

Globoside
−: all assays above
